The assay concerns the target T1, hCD38 Enzyme (Homo sapiens, UniProt P28907).
T1 construct: purchased Sino Biological Inc 10818-H08H
T1 sequence (P28907 43-300 limits assumed): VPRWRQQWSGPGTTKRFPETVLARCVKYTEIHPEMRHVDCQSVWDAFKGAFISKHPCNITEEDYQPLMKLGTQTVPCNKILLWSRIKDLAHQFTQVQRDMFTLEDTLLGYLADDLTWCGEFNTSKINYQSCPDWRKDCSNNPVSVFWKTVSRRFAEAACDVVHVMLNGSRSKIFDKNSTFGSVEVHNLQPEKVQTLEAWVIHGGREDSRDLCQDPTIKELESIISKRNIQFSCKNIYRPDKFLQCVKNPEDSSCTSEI
Briefly: CD38 hydrolase enzymatic assay. The assay is classed as biochemical. To be noted: rhCD38, ε-NAD substrate, 25° C., point reading time 20 mins; read-out: hCD38 Enzyme inhibition IC50. The method, then: Also, a blank sample was prepared with 50 μl of sucrose buffer and no test compounds.
The dynamic reading was performed at 25° C. with excitation light of 300 nm and emission light of 410 nm on the enzyme marker by contacting the above-prepared rhCD38 enzyme working fluid and the above-prepared solutions of the test compounds disclosed herein or the solution of the control. The readings were recorded for a total of 1 hour, and the data were analyzed with the point reading time of 20 mins.
Fluorescence was recorded by a microplate reader. Individual excel files containing fluorescence data were exported and the results were plotted against various drug concentrations and analyzed in GraphPad Prism 7.0 for concentration curve generation.

Molecules are shown by their SMILES. Structures can show the parent of a compound that is named as a salt.

The term IC50 denotes the midpoint of a concentration-inhibition curve. Take `O=C(Nc1cccc(Cl)c1)c1cc(C(F)(F)F)nc(-n2ccnc2)n1` [compound 124, N-(3-chlorophenyl)-2-(1H-imidazol-1-yl)-6-(trifluoromethyl) pyrimidine-4-carboxamide]: the IC50 amounted to 3 nM. With `O=C(NC1CCCCC1)c1cc(N2CCCCC2)cc(-n2ccnc2)n1` [compound 130, N-cyclohexyl-6-(1H-imidazol-1-yl)-4-(piperidin-1-yl)picolinamide] the figure was 149 nM; with `O=C(Nc1cc(F)ccc1F)c1cc(N2CCCCC2)nc(-n2ccnc2)n1` [compound 135, N-(2,5-difluorophenyl)-2-(1H-imidazol-1-yl)-6-(piperidin-1-yl)pyrimidine-4-carboxamide], 36 nM; with `Cc1ccc(F)cc1NC(=O)c1cc(N2CCCCC2)nc(-n2ccnc2)n1` [compound 137, N-(5-fluoro-2-methylphenyl)-2-(1H-imidazol-1-yl)-6-(piperidin-1-yl)pyrimidine-4-carboxamide], more than 10000 nM. For the molecule `CC1(C)CCC(NC(=O)c2cc(C(F)(F)F)nc(-n3ccnc3)n2)CC1` [compound 138, N-(4,4-dimethylcyclohexyl)-2-(1H-imidazol-1-yl)-6-(trifluoromethyl) pyrimidine-4-carboxamide], the IC50 worked out at 76 nM.

As to `CC(C)(C)NC(=O)c1cc(C(F)(F)F)nc(-n2ccnc2)n1` [compound 141, N-(tert-butyl)-2-(1H-imidazol-1-yl)-6-(trifluoromethyl) pyrimidine-4-carboxamide], the IC50 was 1030 nM.

Turning to `O=C(NC1CCCCC1)c1cc(N2CCCCC2)nc(-n2ccnc2)n1` [compound 144, N-cyclohexyl-2-(1H-imidazol-1-yl)-6-(piperidin-1-yl)pyrimidine-4-carboxamide], the IC50 is 46 nM.

`C[C@H]1CC[C@H](NC(=O)c2cc(C(F)(F)F)nc(-n3ccnc3)n2)CC1` [compound 146, 2-(1H-imidazol-1-yl)-N-((1r,4r)-4-methylcyclohexyl)-6-(trifluoromethyl) pyrimidine-4-carboxamide]: the half-inhibitory concentration (IC50) was found to be 18 nM. Next, `C[C@H]1CC[C@H](NC(=O)c2cc(N3CCCCC3)nc(-n3ccnc3)n2)CC1` [compound 147, 2-(1H-imidazol-1-yl)-N-((1r,4r)-4-methylcyclohexyl)-6-(piperidin-1-yl)pyrimidine-4-carboxamide]: 70 nM; `CO[C@H]1CC[C@H](NC(=O)c2nc(-n3ccnc3)ccc2C(F)(F)F)CC1` [compound 151, 6-(1H-imidazol-1-yl)-N-((1r,4r)-4-methoxycyclohexyl)-3-(trifluoromethyl) picolinamide]: 1550 nM. `CO[C@H]1CC[C@H](NC(=O)c2ccc(C(F)(F)F)c(-n3ccnc3)n2)CC1` [compound 152, 6-(1H-imidazol-1-yl)-N-((1r,4r)-4-methoxycyclohexyl)-5-(trifluoromethyl) picolinamide]: the half-maximal inhibitory concentration (IC50) is more than 10000 nM. Next, `CO[C@H]1CC[C@H](NC(=O)c2ccnc(-n3cnc(C(F)(F)F)c3)n2)CC1` [compound 153, N-((1r,4r)-4-methoxycyclohexyl)-2-(4-(trifluoromethyl)-1H-imidazol-1-yl) pyrimidine-4-carboxamide]: more than 10000 nM; `CO[C@H]1CC[C@H](NC(=O)c2ccnc(-n3ccnc3C(F)(F)F)n2)CC1` [compound 154, N-((1r,4r)-4-methoxycyclohexyl)-2-(2-(trifluoromethyl)-1H-imidazol-1-yl) pyrimidine-4-carboxamide]: more than 10000 nM.

Consider `COCCO[C@H]1CC[C@H](NC(=O)c2cc(C(F)(F)F)nc(-n3ccnc3)n2)CC1` [compound 157, 2-(1H-imidazol-1-yl)-N-((1r,4r)-4-(2-methoxyethoxy)cyclohexyl)-6-(trifluoromethyl) pyrimidine-4-carboxamide], for which the IC50 came to 49 nM. With `C[C@H]1CC[C@H](NC(=O)c2cc(C(F)(F)F)cc(-n3ccnc3)n2)CC1` [compound 158, 6-(1H-imidazol-1-yl)-N-((1r,4r)-4-methylcyclohexyl)-4-(trifluoromethyl) picolinamide] the figure was 37 nM; with `O=C(Nc1cccc(F)c1)c1nc(-n2ccnc2)ccc1C(F)(F)F` [compound 159, N-(3-fluorophenyl)-6-(1H-imidazol-1-yl)-3-(trifluoromethyl) picolinamide], 34 nM. In the case of `O=C(Nc1cccc(F)c1)c1ccc(C(F)(F)F)c(-n2ccnc2)n1` [compound 160, N-(3-fluorophenyl)-6-(1H-imidazol-1-yl)-5-(trifluoromethyl) picolinamide], the IC50 was found to be 317 nM. With `CO[C@H]1CC[C@H](NC(=O)c2nc(-n3ccnc3)ncc2C(F)(F)F)CC1` [compound 161, 2-(1H-imidazol-1-yl)-N-((1r,4r)-4-methoxycyclohexyl)-5-(trifluoromethyl) pyrimidine-4-carboxamide] the figure was 831 nM; with `O=C(NC1CCNCC1)c1cc(C(F)(F)F)nc(-n2ccnc2)n1` [compound 162, 2-(1H-imidazol-1-yl)-N-(piperidin-4-yl)-6-(trifluoromethyl) pyrimidine-4-carboxamide hydrochloride], more than 10000 nM; with `O=C(NC1CCOCC1)c1cc(C(F)(F)F)nc(-n2ccnc2)n1` [compound 163, 2-(1H-imidazol-1-yl)-N-(tetrahydro-2H-pyran-4-yl)-6-(trifluoromethyl) pyrimidine-4-carboxamide], 92 nM. Turning to `N#Cc1ccc(NC(=O)c2cc(C(F)(F)F)nc(-n3ccnc3)n2)cn1` [compound 164, N-(6-cyanopyridin-3-yl)-2-(1H-imidazol-1-yl)-6-(trifluoromethyl) pyrimidine-4-carboxamide], the half-inhibitory concentration (IC50) was 4 nM. With `N#Cc1ccc(NC(=O)c2cc(C(F)(F)F)nc(-n3ccnc3)n2)cc1` [compound 165, N-(4-cyanophenyl)-2-(1H-imidazol-1-yl)-6-(trifluoromethyl) pyrimidine-4-carboxamide], the IC50 turned out to be 3 nM. `O=C(Nc1cncc(F)c1)c1cc(C(F)(F)F)nc(-n2ccnc2)n1` [compound 167, N-(5-fluoropyridin-3-yl)-2-(1H-imidazol-1-yl)-6-(trifluoromethyl) pyrimidine-4-carboxamide]: the IC50 worked out at 4 nM. With `N#Cc1cncc(NC(=O)c2cc(C(F)(F)F)nc(-n3ccnc3)n2)c1` [compound 169, N-(5-cyanopyridin-3-yl)-2-(1H-imidazol-1-yl)-6-(trifluoromethyl) pyrimidine-4-carboxamide] the figure was 20 nM. Next, `O=C(Nc1ccc(F)cc1)c1cc(C(F)(F)F)nc(-n2ccnc2)n1` [compound 172, N-(4-fluorophenyl)-2-(1H-imidazol-1-yl)-6-(trifluoromethyl) pyrimidine-4-carboxamide]: 8.2 nM; `O=C(Nc1ccc(F)c(F)c1)c1cc(C(F)(F)F)nc(-n2ccnc2)n1` [compound 173, N-(3,4-difluorophenyl)-2-(1H-imidazol-1-yl)-6-(trifluoromethyl) pyrimidine-4-carboxamide]: 6.8 nM. Next, `O=C(Nc1cc(F)cc(F)c1)c1cc(C(F)(F)F)nc(-n2ccnc2)n1` [compound 174, N-(3,5-difluorophenyl)-2-(1H-imidazol-1-yl)-6-(trifluoromethyl) pyrimidine-4-carboxamide]: 5.4 nM.

For the origin of these results see US12679832B2, “Compounds and their uses as CD38 inhibitors” (Nanjing Immunophage Biotech Co., Ltd., priority 2021, dated 2026).
